Test: gradient 5% acetonitrile 3 min, to 50% in 2 min, to 85% in 15 min, held 3 min, 100 µL/min
Settings: column: Zorbax Extend-C18 2.1 x 50 mm; eluents: water / acetonitrile, 0.1% formic acid
Procedure, shortened: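 Retention times of pure standards were taken from adduct peaks that were selected by computer and manually inspected. Over 3 months, mixtures of ~100 molecules were run by HPLC–quadrupole time-of-flight mass spectrometry in positive and negative ionization mode. The Zorbax Extend-C18 column (2.1 × 50 mm, 1.8 μm) ran at 100 μL/min in water and acetonitrile, each containing 0.1% formic acid, with 40 μL dead volume and 900 μL dwell volume.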

CCCS(=O)(=O)N1CCC2(CC1)CN(c1ccccc1)C2=O
RP-LC retention time: 812 s

CCCN(CC1CCOC1)C(=O)c1cc(C)cc(C)c1 (stereo not given)
RP-LC retention time: 868 s

CC(C)N1C(=O)c2cccnc2Sc2cc(NC(=O)Cc3cccs3)ccc21
RP-LC retention time: 834 s

CC(C)N1CCn2cc(S(=O)(=O)Nc3ccc(Cl)cc3)cc2C1=O
RP-LC retention time: 805 s

CC(C)C(=O)Nc1ccc(-n2cnc(C(=O)NC(C)c3ccc(F)cc3)c2)nc1 (stereo not given)
RP-LC retention time: 777 s

CCn1c(=O)oc2cc(-c3noc(-c4ccc(Cl)cc4OC)n3)ccc21
RP-LC retention time: 1170 s

Cc1cc(NS(=O)(=O)c2ccc(-c3nnc(C4CCC4)o3)o2)ccc1F
RP-LC retention time: 963 s

c1ccc(CC2CCN(Cc3nc(-c4ccc(N5CCOCC5)nc4)no3)CC2)cc1
RP-LC retention time: 716 s

Cc1ccc(CNC(=O)N2CCN(c3ncccc3-c3nnc(C(C)C)o3)CC2)cc1
RP-LC retention time: 815 s

Cc1c(C(=O)N2CCOCC2)cc(-c2ccccc2)n1C
RP-LC retention time: 616 s

CCn1c(CN(C)C(=O)Nc2ccc3c(c2)OCO3)nc2cc(C(=O)N(C)C)ccc21
RP-LC retention time: 607 s

CCc1ccccc1NC(=O)N1CCN(c2cc(C)nc(N3CCOCC3)n2)CC1
RP-LC retention time: 695 s

Cc1cnc(C(=O)N2CCC(c3noc(-c4cnccn4)n3)C2)cn1 (stereo not given)
RP-LC retention time: 630 s

CCOc1ccc(NC(=O)C2CCCN(c3nnc4ccccn34)C2)cc1 (stereo not given)
RP-LC retention time: 674 s

CCOc1ccccc1-c1noc(Cn2c(=O)n(-c3cccc(F)c3)c(=O)c3sccc32)n1
RP-LC retention time: 967 s

COc1ccc2c(c1OC)C(=O)N1N=C(c3ccc(-c4ccccc4)cc3)CC21 (stereo not given)
RP-LC retention time: 927 s

Cc1noc(C)c1-c1ccc(S(=O)(=O)N2CCCCC2)cc1
RP-LC retention time: 961 s

CCNC(=O)C1CCN(S(=O)(=O)c2ccc3c(c2)NC(=O)CO3)CC1
RP-LC retention time: 623 s

CCCN1CCCCc2cc(C(=O)N(C)CC(=O)NC)sc21
RP-LC retention time: 791 s

Cc1cc2c(c(=O)n(-c3ccccc3)c(=O)n2CC(=O)Nc2cccc(C(F)(F)F)c2)n1C
RP-LC retention time: 904 s

COc1ccc(-c2nc3n(c2C(=O)Nc2nc(-c4ccccc4)cs2)CCS3(=O)=O)cc1
RP-LC retention time: 1010 s

COc1ccc(C(=O)N2CCCC(COc3ccc(C(=O)NC(C)C)cc3)C2)cc1F (stereo not given)
RP-LC retention time: 846 s

O=C(CCc1c(-c2ccccc2)nc2ccccn12)Nc1cccc(F)c1
RP-LC retention time: 692 s

c1cc(-n2nnc3cnccc32)ccn1
RP-LC retention time: 637 s

Cc1cc(OCC(=O)N2CCCC(C)C2)nc(-c2ccc(Cl)cc2)n1 (stereo not given)
RP-LC retention time: 1140 s

COc1ccccc1N1CCN(CCN2C(=O)c3ccccc3C(C)(C)C2=O)CC1
RP-LC retention time: 787 s

O=C(c1cccn1Cc1noc(-c2ccc(Cl)cc2)n1)N1CCCCCC1
RP-LC retention time: 1160 s

CCOCCCNC(=O)C1CCCN(c2ccc(=O)n(-c3ccc(F)cc3)n2)C1 (stereo not given)
RP-LC retention time: 697 s

Cc1ccc(CN2C[C@@H]3C(=O)N(C)C(=O)[C@@H]3C2)cc1C
RP-LC retention time: 604 s

CCCC(=O)N1CCCN(C2=NS(=O)(=O)C(c3ccc(Cl)cc3)=C2C)CC1
RP-LC retention time: 834 s

COCc1cc(=O)n(CC(=O)Nc2cccc(F)c2)c(N)n1
RP-LC retention time: 618 s

COc1cccc(CNC(=O)C2CCN(c3nnc4c(Cl)cccn34)CC2)c1
RP-LC retention time: 683 s

CCc1cc(=O)n(CC(=O)Nc2ccc(Br)cc2F)c(N2CCOCC2)n1
RP-LC retention time: 853 s

Cc1nc(-c2nc(-c3cccs3)cs2)cn1CC(=O)NCc1ccc(F)cc1
RP-LC retention time: 789 s

O=C(NCc1ccccn1)C1CCCN(c2ccc3cc(S(=O)(=O)N4CCCC4)ccc3n2)C1 (stereo not given)
RP-LC retention time: 585 s

CC(=O)Nc1ccc(CCc2nc3ccc(C(=O)NC(C)CCc4ccccc4)cc3[nH]2)cc1 (stereo not given)
RP-LC retention time: 682 s

C[C@@H]1c2ccccc2CCN1C(=O)c1ccccc1F
RP-LC retention time: 919 s

COCCNC(=O)C1CCN(c2cnc(N3CCCCCC3)nc2)CC1
RP-LC retention time: 617 s

C#C[C@]1(O)CC[C@H]2[C@@H]3CCC4=CC(=O)CCC4=C3C=C[C@@]21CC
RP-LC retention time: 1050 s

Cc1ccc(S(=O)(=O)N2CCC3(CCN(c4cccnc4)C3)C2)c(C)c1 (stereo not given)
RP-LC retention time: 684 s

Cc1ccc(-c2noc(Cc3nnc(-c4ccc(C)cc4)o3)n2)cc1
RP-LC retention time: 1120 s

CCCCNC(=O)CCC1CCN(c2cc(NCCC)ncn2)CC1
RP-LC retention time: 658 s

Cc1noc(CNC(=O)c2ccc(OCc3nc(-c4ccco4)cs3)cc2)n1
RP-LC retention time: 758 s

COc1ccccc1-c1csc(NC(=O)Cc2csc(C)n2)n1
RP-LC retention time: 881 s

CC(=O)Nc1ccc(S(=O)(=O)NCCc2csc(C)n2)cc1
RP-LC retention time: 600 s

O=C(Nc1cccc(Cl)c1F)N1CCc2nc[nH]c2C1
RP-LC retention time: 589 s

Cc1ccc(N2C(=O)CN(S(=O)(=O)c3ccccc3)CC2(C)C(=O)NC2CCCC2)cc1C (stereo not given)
RP-LC retention time: 963 s

COc1ccc(N2CCN(S(=O)(=O)c3cc(-c4cc(C(F)(F)F)on4)sc3C)CC2)cc1
RP-LC retention time: 1270 s

C#CC(c1ccccc1)(c1ccccc1)n1ccnc1
RP-LC retention time: 739 s

O=S(=O)(c1ccccc1F)N1CCN(Cc2cccc(F)c2)C2(CCOCC2)C1
RP-LC retention time: 807 s

O=C(NCC1CCOCC1)Nc1c(F)cccc1F
RP-LC retention time: 628 s

C=Cc1ccc(Cn2cc(S(=O)(=O)N3CCOCC3)ccc2=O)cc1
RP-LC retention time: 825 s

COc1ccc(OCC(=O)N2CCN(Cc3noc4ccccc34)CC2)cc1
RP-LC retention time: 711 s

O=C(Nc1nc2ccccc2[nH]1)C1CCN(c2ccc(-c3cccs3)nn2)CC1
RP-LC retention time: 591 s

CN1C(=O)c2cc(C(=O)N3CCCCCC3)nn2CC1(C)C(=O)NC1CCCCCC1 (stereo not given)
RP-LC retention time: 802 s

O=C1CC(c2noc(-c3ccc(F)c(Cl)c3)n2)CN1c1ccc(F)cc1 (stereo not given)
RP-LC retention time: 1070 s

CC1(CNS(=O)(=O)c2ccc(F)c(F)c2)CCOCC1
RP-LC retention time: 810 s

CCc1ccc(NC(=O)C2CCCN2S(=O)(=O)c2ccc3c(c2)CCCC(=O)N3)cc1 (stereo not given)
RP-LC retention time: 835 s

O=C(NC1CC1)c1ccc(-c2cccs2)nc1
RP-LC retention time: 716 s

Cc1cccc(-c2nc3cnccn3c2NCCC(=O)N2CCCC2)c1
RP-LC retention time: 650 s

Cc1ccc(CC(=O)N2CCC3(C2)C(=O)N(C)c2ccccc23)cc1 (stereo not given)
RP-LC retention time: 850 s

CCC(C)c1ccc(NC(=O)c2nn(C)cc2Cl)cc1 (stereo not given)
RP-LC retention time: 1100 s

Nc1ccccc1NC(=O)CCCCCC(=O)Nc1ccccc1
RP-LC retention time: 683 s

Cn1nc(C(C)(C)C)cc1C(=O)N[C@@H](Cc1cccc(Cl)c1)C(=O)NCC#N
RP-LC retention time: 946 s

COc1nc2ccccc2nc1N1CCCC(C(=O)Nc2cc(F)cc(F)c2)C1 (stereo not given)
RP-LC retention time: 1170 s

COc1cccc(CNC(=O)Nc2cccc(-c3ccc(N4CCOCC4)nn3)c2)c1
RP-LC retention time: 670 s

CCC(CO)NCc1ccc(-c2cccc(Cl)c2C)o1 (stereo not given)
RP-LC retention time: 683 s

CC(=O)N1CCc2cc(S(=O)(=O)C(C)CC(=O)NC3CCN(Cc4ccccc4)CC3)ccc21 (stereo not given)
RP-LC retention time: 551 s

CCC(C)NC(=O)c1cn(-c2ccc(-c3nc(C(C)C)no3)cn2)cn1 (stereo not given)
RP-LC retention time: 899 s

CCc1nc2cc(N3CCC(C(=O)NCCN4CCOCC4)CC3)cnc2nc1CC
RP-LC retention time: 581 s

Cc1ccc2c(Nc3ccc4c(c3)OCO4)c(-c3nc(C4CC4)no3)cnc2n1
RP-LC retention time: 736 s

CCNc1nc(Nc2cc(F)c(C(=O)N3CCOCC3)cc2OC)ncc1C(F)(F)F
RP-LC retention time: 915 s

Cc1ccccc1NC(=O)Cc1csc2nc(-c3cccc(Br)c3)cn12
RP-LC retention time: 948 s

c1cncc(-c2nc(-c3ccc4c(c3)ncn4CCN3CCCCC3)no2)c1
RP-LC retention time: 581 s

Cc1cccc(-n2c(=O)c3c(cc(C)n3C)n(CC(=O)Nc3c(C)cc(C)cc3C)c2=O)c1
RP-LC retention time: 914 s

CCN1CCN(CC2CCN(S(=O)(=O)Cc3c(F)cccc3Cl)CC2)CC1
RP-LC retention time: 611 s

Cc1cc(Cl)ccc1NC(=O)N1C[C@H](c2nc(-c3cccnc3)no2)[C@@H](C)C1
RP-LC retention time: 827 s

COc1ccc(OC)c(S(=O)(=O)N2CCC(Cc3nncn3C)C2)c1 (stereo not given)
RP-LC retention time: 619 s

COCCNC(=O)Cn1nc(C)c2c(C)n(-c3ccccc3)nc2c1=O
RP-LC retention time: 649 s

Cc1ccc(N2C(=O)CN(S(C)(=O)=O)CC2(C)C(=O)NC2CCCCCC2)cc1Cl (stereo not given)
RP-LC retention time: 946 s

COc1cccc(Cc2nc(-c3cccc(-c4ccn[nH]4)c3)no2)c1
RP-LC retention time: 932 s

O=C(Nc1ccc(F)c(Cl)c1)c1sc2ncccc2c1-n1cccc1
RP-LC retention time: 1170 s

CCOC(=O)c1oc2ccc(S(=O)(=O)N3CCC(c4noc(C5CC5)n4)C3)cc2c1C (stereo not given)
RP-LC retention time: 1000 s

CC(C)C(=O)N1CC(c2nc(-c3ccc(F)cc3)no2)C2(CCOCC2)C1 (stereo not given)
RP-LC retention time: 857 s

COc1ccc(N2CCN(C(=O)C3CCN(S(=O)(=O)c4cn(C(C)C)cn4)CC3)CC2)cc1
RP-LC retention time: 706 s

O=C(Cn1ccn2nc(-c3ccccc3)c(CO)c2c1=O)Nc1ccc(F)cc1F
RP-LC retention time: 781 s

O=C(c1n[nH]c(=O)c2ccccc12)N1CCCC1c1nc(CCOCC2CCCC2)no1 (stereo not given)
RP-LC retention time: 848 s

Cc1ccc(CNC(=O)N2CCC(OC3CCN(Cc4ccccc4)CC3)CC2)cc1
RP-LC retention time: 681 s

COc1ccc(-n2cc(C(=O)NCCc3c[nH]c4ccc(F)cc34)nn2)cc1
RP-LC retention time: 871 s

COc1ccccc1N1CCN(c2cc(SCC(=O)Nc3ccc(F)cc3)ncn2)CC1
RP-LC retention time: 941 s

From the METLIN SMRT retention time set (Domingo-Almenara et al. 2019)
